Reference: patent US6796966B2, “Apparatus, and kits for preventing of alleviating vasoconstriction or vasospasm in a mammal” (priority 1997, dated 2004)
Bridges are numbered along the chain shown (N, C = ends). Where no end group is shown, it is not given here.

Experiments:
[1] = test system: cerebral vasospasm; assay: ITSNP therapy for alleviation and prevention of cerebral vasospasm after aneurysmal SAH, 16 patients; type: in vivo, human; settings: pre-therapy administration
[2] = test system: basilar artery; assay: Reversal of endothelin-1-induced cerebral vasoconstriction; suffusion of exposed basilar artery in sCSF, video microscopy; type: in vivo, New Zealand White rabbits
[3] = in the presence of oxygen; cited from earlier work
[4] = ET-1 100 nanomolar in sCSF, 1 milliliter per minute, Groups 4, 5, 6, n=38

With `Cc1nccn1CC1CCc2c(c3ccccc3n2C)C1=O` (stereo not drawn) [ondansetron] as the compound, how does the “effect on nausea associated with ITSNP therapy” value [1] read?
The value was “abolished”.

With “Endothelin-1 (CSCSSLMDKECVYFCHLDIIW; disulfide 1-15, 3-11; ends not checked; UniProt P05305 53-73, looked up) [ET-1]” as the compound, how does the “reduction of arterial diameter began, after starting the delivery” value [2, 4] read?
The value was 5 to 8 min.

And the “reduction of arterial diameter complete within” value [2, 4]?
Its value is 20 to 30 min.

What about the “average minimal diameter, % of baseline diameter” value ([2]; ET-1 100 nanomolar suffusion) of the same compound?
Its value is 50.4%.

And the “average minimal diameter of the artery” value ([2]; ET-1 100 nanomolar suffusion, baseline 992 microns)?
Its value is 500 microns.

And the “return to baseline diameter after ET-1 when followed by sCSF alone” value ([2]; Group 4, n=15)?
The value was over 30 min.

Which half-life in vivo [3] does the source give for `[N]=O` [NO, nitric oxide] here?
The half-life in vivo was “measured in seconds”.

What does the source list for `O=[N+]([O-])OCC(CO[N+](=O)[O-])O[N+](=O)[O-]` [NTG, nitroglycerine]?
change in baseline diameter of the basilar artery, substance alone ([2]; rabbit, in vivo): did not produce changes; reversal of ET-1-induced vasoconstriction ([2]; rabbit, in vivo): rapid and pronounced vasodilation
